Measured values as given in ChEMBL document CHEMBL1137935 (Bioorg Med Chem Lett, 2004).
Each block holds one compound with its values, some of them ahead of it. The source made the active and inactive calls. The calls are words filed in the database; no cut-off is given here.

Experiments:
[1] = biological target: T1, Adenosine receptor A1 (Cavia porcellus) (UniProt P47745); assay: Binding affinity against adenosine A1 receptor using [3H]CCPA in guinea pig DDT membrane; 7.5+/-1.9
T1 sequence (whole entry): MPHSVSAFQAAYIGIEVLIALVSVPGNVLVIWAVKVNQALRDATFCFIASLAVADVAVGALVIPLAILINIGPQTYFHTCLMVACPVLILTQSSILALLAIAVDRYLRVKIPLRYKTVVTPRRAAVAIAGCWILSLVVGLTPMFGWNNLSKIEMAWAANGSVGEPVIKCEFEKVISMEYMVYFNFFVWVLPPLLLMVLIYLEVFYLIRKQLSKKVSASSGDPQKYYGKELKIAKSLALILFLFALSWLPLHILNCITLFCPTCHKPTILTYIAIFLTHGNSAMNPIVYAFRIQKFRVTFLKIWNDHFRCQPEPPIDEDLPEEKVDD

[2] = biological target: T1, Adenosine receptor A1 (Cavia porcellus); assay: Binding affinity against […] using [35S]GTP-gamma-S, radioligand in guinea pig.; assay type: functional
[3] = biological target: T1, Adenosine receptor A1 (Cavia porcellus); assay: Binding affinity against adenosine A1 receptor using [3H]CPX in guinea pig DDT membrane; assay type: cell membranes
[4] = biological target: T1, Adenosine receptor A1 (Cavia porcellus); assay: Binding affinity against adenosine A1 receptor using [3H]CPX in guinea pig DDT membrane; 343+/-137
[5] = biological target: T1, Adenosine receptor A1 (Cavia porcellus); assay: Binding affinity against adenosine A1 receptor using [3H]CPX in guinea pig DDT membrane; 604+/-241
[6] = biological target: T1, Adenosine receptor A1 (Cavia porcellus); assay: Binding affinity against adenosine A1 receptor using [3H]CPX in guinea pig DDT membrane; 473+/-329
[7] = biological target: T1, Adenosine receptor A1 (Cavia porcellus); assay: Binding affinity against adenosine A1 receptor using [3H]CPX in guinea pig DDT membrane; 614+/-78
[8] = biological target: T1, Adenosine receptor A1 (Cavia porcellus); assay: Binding affinity against adenosine A1 receptor using [3H]CCPA in guinea pig DDT membrane; 102+/-45
[9] = biological target: T1, Adenosine receptor A1 (Cavia porcellus); assay: Binding affinity against adenosine A1 receptor using [3H]CPX in guinea pig DDT membrane; 1571+/-245
[10] = biological target: T1, Adenosine receptor A1 (Cavia porcellus); assay: Binding affinity against adenosine A1 receptor using [3H]-CCPA in guinea pig DDT membrane; 180+/-23
[11] = biological target: T1, Adenosine receptor A1 (Cavia porcellus); assay: Binding affinity against adenosine A1 receptor using [3H]CPX in guinea pig DDT membrane; 6250+/-1767
[12] = biological target: T1, Adenosine receptor A1 (Cavia porcellus); assay: Binding affinity against adenosine A1 receptor using [3H]CCPA in guinea pig DDT membrane; 2400+/-16
[13] = test system: Adenosine receptor A1 (Cavia porcellus); assay: Binding affinity against […] using [35S]GTP-gamma-S, in guinea pig; not active
[14] = biological target: T1, Adenosine receptor A1 (Cavia porcellus); assay: Binding affinity against adenosine A1 receptor using [3H]CPX in guinea pig DDT membrane; 338+/-98
[15] = biological target: T1, Adenosine receptor A1 (Cavia porcellus); assay: Binding affinity against adenosine A1 receptor using [3H]CCPA in guinea pig DDT membrane; 96+/-11
[16] = biological target: T1, Adenosine receptor A1 (Cavia porcellus)
[17] = biological target: T1, Adenosine receptor A1 (Cavia porcellus); assay: Binding affinity against adenosine A1 receptor using [3H]CPX in guinea pig DDT membrane; 1945+/-1316
[18] = biological target: T1, Adenosine receptor A1 (Cavia porcellus); assay: Binding affinity against adenosine A1 receptor using [3H]CPX in guinea pig DDT membrane; 400+/-38
[19] = biological target: T1, Adenosine receptor A1 (Cavia porcellus); assay: Binding affinity against adenosine A1 receptor using [3H]CPX in guinea pig DDT membrane; 913+/-517
[20] = biological target: T1, Adenosine receptor A1 (Cavia porcellus); assay: Binding affinity against adenosine A1 receptor using [3H]CPX in guinea pig DDT membrane; 158+/-21
[21] = biological target: T1, Adenosine receptor A1 (Cavia porcellus); assay: Binding affinity against adenosine A1 receptor using [3H]CCPA in guinea pig DDT membrane; 21+/-0
[22] = biological target: T1, Adenosine receptor A1 (Cavia porcellus); remark: listed apart in the source
[23] = biological target: T1, Adenosine receptor A1 (Cavia porcellus); remark: listed apart in the source
[24] = biological target: T1, Adenosine receptor A1 (Cavia porcellus); assay: Binding affinity against adenosine A1 receptor using [3H]CPX in guinea pig DDT membrane; 5497+/-180
[25] = biological target: T1, Adenosine receptor A1 (Cavia porcellus); assay: Binding affinity against adenosine A1 receptor using [3H]CCPA in guinea pig DDT membrane; 971+/-139

Ki high [1]: 7.5 nM
efficacy relative to CPA [2]: 98%
Ki low [3]: 165 nM
Compound: OC1[C@@H](O)C(n2cnc3c(NC4CCOC4)ncnc32)O[C@@H]1COCc1ccccc1 (single isomer, unassigned)

Ki low [5]: 604 nM
efficacy relative to CPA [2]: 70%
Compound: OC1[C@@H](O)C(n2cnc3c(NC4CCOC4)ncnc32)O[C@@H]1COc1cccc(F)c1 (single isomer, unassigned)

Ki low [7]: 614 nM
Ki high [8]: 102 nM
efficacy relative to CPA [2]: 89%
Compound: OC1[C@@H](O)C(n2cnc3c(NC4CCOC4)ncnc32)O[C@@H]1CSc1c(Cl)cccc1Cl (single isomer, unassigned)

Ki low [9]: 1570 nM
Ki high [10]: 180 nM
efficacy relative to CPA [2]: 84%
Compound: OC1[C@@H](O)C(n2cnc3c(NC4CCOC4)ncnc32)O[C@@H]1CSc1cccc(F)c1 (single isomer, unassigned)

Ki low [17]: 1940 nM
efficacy relative to CPA [2]: 99%
Compound: OC1[C@@H](O)C(n2cnc3c(NC4CCOC4)ncnc32)O[C@@H]1CSc1nc2ccc(Cl)cc2o1 (single isomer, unassigned)

Ki low [24]: 5500 nM
Ki high [25]: 971 nM
efficacy relative to CPA [2]: 86%
Compound: OC1[C@@H](O)[C@H](n2cnc3c(NC4CCOC4)ncnc32)O[C@@H]1CSc1ccc(F)cc1F (single isomer, unassigned; 19)

efficacy relative to CPA [2]: 88%
Ki low [3]: 494 nM
Compound: OC1[C@@H](O)[C@H](n2cnc3c(NC4CCOC4)ncnc32)O[C@@H]1CSc1ccc(F)cc1F (single isomer, unassigned; 26)

Continued, compound first:

Compound: OC1[C@@H](O)C(n2cnc3c(NC4CCOC4)ncnc32)O[C@@H]1COc1ccc(F)cc1 (single isomer, unassigned)
Ki low [4]: 343 nM
efficacy relative to CPA [2]: 71%

Compound: OC1[C@@H](O)C(n2cnc3c(NC4CCOC4)ncnc32)O[C@@H]1COc1ccccc1Cl (single isomer, unassigned)
Ki low [6]: 473 nM
efficacy relative to CPA [2]: 62%

Compound: OC1[C@@H](O)C(n2cnc3c(NC4CCOC4)ncnc32)O[C@@H]1CSc1ccccc1C(F)(F)F (single isomer, unassigned)
Ki low [11]: 6250 nM
Ki high [12]: 2400 nM
CPA [13]: inactive

Compound: OC1[C@@H](O)C(n2cnc3c(NC4CCOC4)ncnc32)O[C@@H]1CSc1ccccc1Cl (single isomer, unassigned)
Ki low [14]: 338 nM
Ki high [15]: 96 nM
efficacy relative to CPA [2]: 74%

Compound: OC1[C@@H](O)C(n2cnc3c(NC4CCOC4)ncnc32)O[C@@H]1CSc1ccccn1 (single isomer, unassigned)
efficacy relative to CPA [2]: 110%
Ki low [16]: 894 nM

Compound: OC1[C@@H](O)C(n2cnc3c(NC4CCOC4)ncnc32)O[C@@H]1CSc1nc2ccccc2s1 (single isomer, unassigned)
Ki low [18]: 400 nM
efficacy relative to CPA [2]: 100%

Compound: OC1[C@@H](O)C(n2cnc3c(NC4CCOC4)ncnc32)O[C@@H]1CSc1ncccn1 (single isomer, unassigned)
Ki low [19]: 913 nM
efficacy relative to CPA [2]: 89%

Compound: OC1[C@@H](O)C(n2cnc3c(NC4CCOC4)ncnc32)O[C@@H]1CSc1nccs1 (single isomer, unassigned)
Ki low [20]: 158 nM
Ki high [21]: 21 nM
efficacy relative to CPA [2]: 106%

Compound: OC[C@H]1O[C@@H](n2cnc3c(N[C@@H]4CCOC4)ncnc32)[C@H](O)C1O (single isomer, unassigned)
Ki low [22]: 543 nM
Ki high [23]: 3.25 nM
